# pKi: −log10 of the molar value.
# What was measured:
# Adenosine receptor A2a = Adenosine receptor A2a (Rattus norvegicus, UniProt P30543)
# Adenosine receptor A1 = biological target: T1, Adenosine receptor A1 (Rattus norvegicus, UniProt P25099)
# T1 sequence (P25099 whole entry): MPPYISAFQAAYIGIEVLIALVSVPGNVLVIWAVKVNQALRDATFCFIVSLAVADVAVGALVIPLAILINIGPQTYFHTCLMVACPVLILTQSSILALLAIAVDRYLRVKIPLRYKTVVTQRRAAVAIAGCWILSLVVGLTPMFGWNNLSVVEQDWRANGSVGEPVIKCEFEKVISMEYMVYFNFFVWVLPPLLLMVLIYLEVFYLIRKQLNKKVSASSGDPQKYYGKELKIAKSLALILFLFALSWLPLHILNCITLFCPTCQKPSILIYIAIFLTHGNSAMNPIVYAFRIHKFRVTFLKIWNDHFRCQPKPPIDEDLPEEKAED
# Chain of Adenosine receptor A2a (P30543 whole entry): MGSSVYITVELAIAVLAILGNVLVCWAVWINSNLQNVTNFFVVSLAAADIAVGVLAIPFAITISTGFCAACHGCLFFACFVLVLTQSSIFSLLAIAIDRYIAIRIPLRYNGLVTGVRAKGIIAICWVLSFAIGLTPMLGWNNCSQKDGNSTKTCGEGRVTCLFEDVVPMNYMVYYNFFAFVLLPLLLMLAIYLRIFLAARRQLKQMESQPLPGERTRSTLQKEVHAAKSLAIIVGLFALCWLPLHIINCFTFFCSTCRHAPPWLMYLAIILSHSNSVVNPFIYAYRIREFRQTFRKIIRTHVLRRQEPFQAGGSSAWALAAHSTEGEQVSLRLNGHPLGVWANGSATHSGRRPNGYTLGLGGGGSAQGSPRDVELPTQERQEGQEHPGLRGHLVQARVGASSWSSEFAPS
SMILES,pKi (Adenosine receptor A2a),pKi (Adenosine receptor A1)
OC[C@H]1O[C@@H](n2cnc3c(NC4CCCC4)ncnc32)[C@H](O)[C@@H]1O,6.29,–
CSC[C@H]1O[C@@H](n2cnc3c(NC4CCCC4)nc(F)nc32)[C@H](O)[C@@H]1O [2-Fluoro-5'-Methylthio Adenosine],6.02,7.08
Nc1nc(F)nc2c1ncn2[C@@H]1O[C@H](CO)[C@@H](O)[C@H]1O [2-FluoroAdo],7.55,8.23
Nc1ncnc2c1ncn2[C@@H]1O[C@H](Cl)[C@@H](O)[C@H]1O [5'-Chloro Adenosine],6.85,7.70
CSC[C@H]1O[C@@H](n2cnc3c(NC4CCCC4)ncnc32)[C@H](O)[C@@H]1O [5'-Methylthio Adenosine],5.93,6.61
CCNC(=O)C1OC(n2cnc3c(NC4CCCCC4)ncnc32)C(O)C1O (stereo not drawn) [N6-CyclohexylNECA],6.77,9.37
O[C@@H]1[C@H](O)[C@@H](Cl)O[C@H]1n1cnc2c(NC3CCCC3)ncnc21 [N6-Cyclopentyl-5'chloro Adenosine],5.87,9.20

# Reference: BindingDB's records for doi:10.1016/0006-2952(92)90616-q (National Institutes of Diabetes and Digestive and Kidney …, 1992)
